# Values quoted from earlier work, collected in patent publication US12150927B2, “Use of cannabidiolic acid in the treatment of autism spectrum disorder and associated disorders” (GW Research Limited, priority 2016, dated 2024).
# Conditions: background statement; cited from earlier work
smiles,measurement,value
Cc1c(C(=O)NN2CCCCC2)nn(-c2ccc(Cl)cc2Cl)c1-c1ccc(Cl)cc1 [rimonabant],side effects,serious side effects such as suicide ideation
